# Source: patent US7888389B2 (The Regents of the University of Michigan, priority 2002, dated 2011)
# Where “and” joins values, the source holds several entries; their conditions need not be identical. Equal values may be shown once. Read-outs that look alike come from different tables or passages of the source.
# Columns and labels:
# [1] = Stability in moist heated air; format: physicochemical
# [2] = cited from earlier work
# [3] = IV 99Mo labeled TM, sheep; cited from earlier work
# [4] = cited from earlier work; remark: listed apart in the source
# mammary tumors = assay: Mammary tumor development in HER2-neu transgenic mice
substance,measurement,setting,value
tetrathiomolybdate [TM],increase of loss of activity in moist heated air over ambient conditions,[1],about 10 fold
same,anemia,[2]; 18 mg of TM,the anemia was severe
same,effects in rats,[2]; approximately 6 mg of TM per kilogram of diet,substantial effects on copper
same,anemia,[2]; approximately 12 mg of TM,Mild anemia was present
same,skeletal lesions,[2]; approximately 12 mg of TM,one of six animals
same,prevention of toxic effects by copper,[2]; up to 36 mg of TM per kilogram of diet,could be prevented by oral supplementation with copper
same,excreted in feces,[3],5%
same,excreted in urine,[3],over 90%
same,t1/2 of slow plasma disappearance,[3],about 40 h
same,tolerance of TM injections,"[4]; IV 50 or 100 mg 2x weekly, copper loaded sheep",tolerated up to 22 injections of TM without clinical problems
same,adverse side effects in commercial sheep flocks,[4]; over 400 animals treated,no adverse side effects
same,TM-treated mice developing clinically overt tumors,"mammary tumors; 0.5-1.0 mg TM by gavage daily from 100 days of age, median follow-up 260 days",none
same,ceruloplasmin (Cp) in treatment group,mammary tumors; 0.5-1.0 mg TM daily,below 40 % of baseline
same,outcome at higher doses,mammary tumors; 1.25-1.5 mg TM,died after 1-3 weeks of therapy
same,shrinkage of well established tumors (>1.5 cm),"mammary tumors; 3 control animals treated, 2/3 cases",25% and 50%
same,vascularization of micro-tumors in mammary glands,"mammary tumors; TM-treated mice, microscopic analyses",none of the micro-tumors of the treated mice were vascularized
same,"maximum tolerated dose (MTD), prolonged treatment","mammary tumors; adult mice, average weight 32 grams",1.0 mg/day
same,anemia,mammary tumors; copper (Cp) decreased to below 40% of baseline,no anemia observed
same,clinically overt toxicity,mammary tumors; copper levels decreased to 10% of baseline,no clinically overt toxicity
same,time to clinically overt mammary tumors after release from treatment,mammary tumors; cross-over group previously disease-free,≤ 18 days
